The text below walks through data of patent publication US7919517B2, “Indazole derivatives” (Kyowa Hakko Kirin Co., Ltd., priority 2003, dated 2011).

Type in all cases: cell-based
The subject of assay [1] is human colon cancer cell line Colo205. Kind of assay: Cytostatic activity on solid carcinoma cell line Colo205 (WST-1). To be noted: Homo sapiens, COLO 205; 10 μmol/L, 72 hours, Colo205 cells; read-out: cytostatic rate Colo205 (%) (10 μmol/L). The gist of the method:
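Colo205 cells in RPMI 1640 with 10% FBS were pre-cultured 24 h, then exposed to compound at 10 μmol/L final (0.1% DMSO) for 72 h at 37° C. WST-1 was added for 2 h and A450 (ref 690 nm) read. Cytostatic rate = 100 − relative growth, with DMSO control set at 100% and medium blank at 0%.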
Background: Tetrazolium dyes change colour on reduction, which living cells bring about.

Assay [2] relates to human acute myeloid leukemia cell line MV-4-11. Kind of assay: Cytostatic activity on leukemia cell line MV-4-11 (WST-1). To be noted: Homo sapiens, MV4-11; 10 μmol/L, 72 hours, MV-4-11 cells; read-out: cytostatic rate MV-4-11 (%) (10 μmol/L). The method, boiled down: (§1)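 Cells in RPMI 1640/10% FBS were pre-cultured 4 h, then exposed to test compound at 10 μmol/L (0.1% DMSO) for 72 h at 37 °C. WST-1 read at 450 nm (690 nm reference); cytostatic rate = 100 − growth relative to DMSO control (100%) and medium blank (0%).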

The test system of assay [3] is human acute myeloid leukemia cell line ML-1. Nature of the assay: Cytostatic activity on leukemia cell line ML-1 (WST-1). To be noted: Homo sapiens, ML1; 10 μmol/L, 72 hours, ML-1 cells; read-out: cytostatic rate ML-1 (%) (10 μmol/L). The gist of the method:
as §1

Assay [4] concerns human chronic myeloid leukemia cell line K562. Nature of the assay: Cytostatic activity on leukemia cell line K562 (WST-1). To be noted: Homo sapiens; 10 μmol/L, 72 hours, K562 cells; read-out: cytostatic rate K562 (%) (10 μmol/L). The gist of the method: as §1

The structures appear in SMILES notation. Where a name gives a salt, the structure may show the parent alone.

Turning to `CC(CO)(CO)C(=O)N1CCN(C(=O)c2ccc(/C=C/c3n[nH]c4ccccc34)cc2)CC1` [Compound 136, (E)-4-(3-hydroxy-2-hydroxymethyl-2-methylpropionyl)-1-{4-[2-(1H-indazol-3-yl)vinyl]benzoyl}piperazine hydrochloride], the inhibition at 10 µM in assay [1] is 91%; in assay [2] it was 99%; in assay [3] it was 82%; in assay [4] it was 94%.
The corresponding values for `O=CN1CCN(C(=O)c2ccc(/C=C/c3n[nH]c4ccccc34)cc2)CC1` [Compound 19, (E)-4-{4-[2-(1H-indazol-3-yl)vinyl]benzoyl}piperazine-1-carbaldehyde] are 89%, 97%, 89% and 78%.
On to `O=C(c1ccccc1)N1CCN(C(=O)c2ccc(/C=C/c3n[nH]c4ccccc34)cc2)CC1` [Compound 46, (E)-1-{4-[2-(1H-indazol-3-yl)vinyl]benzoyl}-4-benzoylpiperazine], for which the inhibition at 10 µM in assay [1] came to 87%; in assay [2] it was 98%; in assay [3], 82%; in assay [4], 93%.
The corresponding values for `O=C(c1ccc(/C=C/c2n[nH]c3ccccc23)cc1)N1CCC(N2CCOCC2)CC1` [Compound 106, (E)-1-{4-[2-(1H-indazol-3-yl)vinyl]benzoyl}-4-morpholinopiperidine] are 37%, 98%, 58% and 35%.
The corresponding values for `CS(=O)(=O)N1CCN(C(=O)c2ccc(/C=C/c3n[nH]c4ccccc34)cc2)CC1` [Compound 47, (E)-1-{4-[2-(1H-indazol-3-yl)vinyl]benzoyl}-4-(methanesulfonyl)piperazine] are 91%, 97%, 88% and 88%.
`CC(C)(C)OC(=O)NN1CCN(C(=O)c2ccc(/C=C/c3n[nH]c4ccccc34)cc2)CC1` [Compound 148, (E)-1-{4-[2-(1H-indazol-3-yl)vinyl]benzoyl}-4-(tert-butyloxycarbonylamino)piperazine]: the inhibition at 10 µM in assay [1] turned out to be 83%; in assay [2], 98%; in assay [3], 81%; in assay [4], 91%.
As for `CN(C)C(=O)NC1CCN(C(=O)c2ccc(/C=C/c3n[nH]c4ccccc34)cc2)CC1` [Compound 132, (E)-4-dimethylcarbamoylamino-1-{4-[2-(1H-indazol-3-yl)vinyl]benzoyl}piperidine], the inhibition at 10 µM is 91% in assay [1], 100% in assay [2], 88% in assay [3] and 95% in assay [4].
The corresponding values for `NC1CCN(C(=O)c2ccc(/C=C/c3n[nH]c4ccccc34)cc2)CC1` [Compound 64, (E)-1-{4-[2-(1H-indazol-3-yl)vinyl]benzoyl}-4-aminopiperidine] are 94%, 98%, 89% and 91%.
In the same order, the values of `CCOC(=O)N1CCN(C(=O)c2ccc(/C=C/c3n[nH]c4ccccc34)cc2)CC1` [Compound 32, (E)-1-{4-[2-(1H-indazol-3-yl)vinyl]benzoyl}-4-ethoxycarbonylpiperazine] are 85%, 94%, 80% and 86%.
The corresponding values for `O=C(c1ccc(/C=C/c2n[nH]c3ccccc23)cc1)N1CCCNCC1` [Compound 85, (E)-1-{4-[2-(1H-indazol-3-yl)vinyl]benzoyl}homopiperazine dihydrochloride] are 89%, 99%, 78% and 90%.
On to `CC(C)NC(=O)CN1CCN(C(=O)c2ccc(/C=C/c3n[nH]c4ccccc34)cc2)CC1` [Compound 135, (E)-1-{4-[2-(1H-indazol-3-yl)vinyl]benzoyl}-4-[2-oxo-2-(isopropylamino)ethyl]piperazine dihydrochloride], for which the inhibition at 10 µM in assay [1] worked out at 87%; in assay [2] it was 99%; in assay [3] it was 79%; in assay [4], 93%.
Regarding `COC(=O)N1CCN(C(=O)c2ccc(/C=C/c3n[nH]c4ccccc34)cc2)CC1` [Compound 75, (E)-4-methoxycarbonyl-1-{4-[2-(1H-indazol-3-yl)vinyl]benzoyl}piperazine hydrochloride], the inhibition at 10 µM in assay [1] is 88%; in assay [2] it was 99%; in assay [3], 88%; in assay [4], 85%.
For the compound `CN1CCC(C(=O)N2CCN(C(=O)c3ccc(/C=C/c4n[nH]c5ccccc45)cc3)CC2)CC1` [Compound 143, (E)-4-[(1-methylpiperidin-4-yl)carbonyl]-1-{4-[2-(1H-indazol-3-yl)vinyl]benzoyl}piperazine], the inhibition at 10 µM in assay [1] came out at 92%; in assay [2] it was 100%; in assay [3], 84%; in assay [4], 95%.
Regarding `O=C(c1ccncc1)N1CCN(C(=O)c2ccc(/C=C/c3n[nH]c4ccccc34)cc2)CC1` [Compound 44, (E)-1-{4-[2-(1H-indazol-3-yl)vinyl]benzoyl}-4-(isonicotinoyl)piperazine], the inhibition at 10 µM was determined as 91% in assay [1], 98% in assay [2], 85% in assay [3] and 92% in assay [4].
